# Measurements as given in patent US20250221960A1, “COMPOSITIONS AND METHODS FOR THE TREATMENT OF DEPRESSION” (Janssen Pharmaceuticals, Inc., priority 2022, published 2025).
# Assays:
# [1] = Completion / early withdrawal, Example 1; format: in vivo, human; details: Full Safety Analysis Set; 10 mg, N = 85
# From the text: Patients who passed the screening phase entered a lead in phase followed by a double-blind phase. Patients who responded to placebo during the lead in phase were labelled as non-responders. […] The double-blind treatment phase then continued for an additional 6 weeks, after which patients entered a withdrawal period.
# Of the 121 subjects in the enriched population (60 in aticaprant and 61 in placebo group), 117 (96.7%) completed the study. The overall completion rate for the full ITT analysis set is 95%. This contrasts with completion rates of approximately 85% for studies of adjunctive aripiprazole (Pae, CNS Drugs, 2011; 25, 109-127) and 45-62% for adjunctive quetiapine (El Khalili cited above). In total 4 subjects (3.3%) discontinued the study: 2 subjects in placebo and 2 subjects in aticaprant treatment group. See, Tables 30 and 31.
# subjects with MDD [2] = assay: SHAPS total score (anhedonia), Example 1; format: in vivo, human; details: for SHAPS Total Score Change from Baseline LSMean (SE), MMRM / SHAPS Total Score Effect Size vs placebo / SHAPS Total Score LSMean Difference (SE) Treatment - Placebo, MMRM: 10 mg
# From the text: To assess a potential effect on anhedonia, an anhedonia scale may be used. For example, the Snaith-Hamilton Pleasure Scale (SHAPS) analysis is a validated scale for the measurement of anhedonia. The SHAPS is a subject completed scale in which subjects score whether or not they experience pleasure in performing a list of activities or experiences. The SHAPS is a self-reported 14-item instrument, developed for the assessment of hedonic capacity. Subjects score whether they experience pleasure in performing a list of activities or experiences. Subjects can rate the answers as 1-4 where 1 indicates “Definitely agree”, 2 indicates “Agree”, 3 indicates “Disagree” and 4 indicates “Definitely disagree”. The subject's item responses are summed to provide a total score ranging from 14 to 56. A higher total SHAPS score indicates higher levels of current anhedonia. Physician/clinical judgment can be used to assess anhedonia separately or in conjunction with an anhedonia scale.
# In some embodiments, the patient has anhedonia. In some embodiments, the patient has moderate anhedonia. In other embodiments, the patient has severe anhedonia. An assessment of moderate or severe anhedonia is typically determined physician/clinical judgment and/or by one or more tests that provide insight into whether a patient has anhedonia. For example, the severity of the anhedonia may be determined using the SHAPS method. In some embodiments, a patient with moderate or severe anhedonia is considered to have a high level of anhedonia. For example, a patient with a SHAPS score of 38 or greater is considered to have moderate to severe anhedonia that can be considered a high level of anhedonia. In some embodiments, a high level of anhedonia is reflected by a SHAPS score of at least about 40, about 42, about 44, about 46, about 48, about 50, about 52, about 54, about 56, about 58, or higher. A patient with mild or no anhedonia would be considered to have a low level of anhedonia that is assessed by physician/clinical judgment and/or one or more tests. For example, a patient with a SHAPS score of less than 38 is considered to have low anhedonia. In certain embodiments, a patient with mild anhedonia may have a SHAPS score of 20 to less than 38, for example, a SHAPS score of 20 to about 36, about 22 to about 36, about 24 to about 36, about 26 to about 36, about 26 to about 34, about 26 to about 32, about 26 to about 30, about 26 to about 28, about 28 to about 36, about 28 to about 36, about 30, to about 36, about 32 to about 36, about 34 to about 36, about 20 to about 34, about 22 to about 34, about 24 to about 34, about 26 to about 32, about 26 to about 30, about 26 to about 28, about 28 to about 36, about 28 to about 34, about 28 to about 32, about 28 to about 30, about 30 to about 36, about 30 to about 34, about 30 to about 32, about 32 to about 36, about 32 to about 34, or about 34 to about 36. Typically, a SHAPS score of less than 20 can be considered to correspond to normal hedonic functioning, and for purposes of this disclosure, would fall into the low category of anhedonia, e.g., a SHAPS score of less than 38.
# iii. To investigate the effect of aticaprant versus placebo on depression related anhedonia as assessed by the SHAPS.
# The treatment phase consisted of 3 periods. […] There were 11 scheduled visits, including screening.
# subjects with MDD [3] = assay: Treatment-emergent adverse events, full safety analysis set, Example 1
# [4] = Table 24, treatment period, Full Safety Analysis Set, 10 mg, N = 85
# [5] = Table 25, treatment period, Full Safety Analysis Set, 10 mg, N = 85
# [6] = Treatment period, Full Safety Analysis Set, 10 mg, N = 85
smiles,measurement,setting,value
"Cc1cc(C)cc(C2CCCN2Cc2ccc(Oc3ccc(C(N)=O)cc3F)cc2)c1 (stereo not drawn) [aticaprant, 3-fluoro-4-4-2-(3,5-dimethylphenyl) pyrrolidin-1-yl-methylphenoxybenzamide]",Reason For Withdrawal/Termination: Adverse event,[1],1 (1.2%)
same,Frequency of Subjects: High Level of Anhedonia (SHAPS Total Score >= 38),"subjects with MDD [2]; Treatment Week 6, eITT, N = 59",8 (13.56%)
same,Frequency of Subjects: Low Level of Anhedonia (20 <= SHAPS Total Score < 38),"subjects with MDD [2]; Treatment Week 6, eITT, N = 59",48 (81.36%)
same,Frequency of Subjects: No Anhedonia (SHAPS Total Score < 20),"subjects with MDD [2]; Treatment Week 6, eITT, N = 59",3 (5.08%)
same,Frequency of Subjects: High Level of Anhedonia (SHAPS Total Score >= 38),"subjects with MDD [2]; Treatment Week 6, fITT, N = 77",8 (10.39%)
same,Frequency of Subjects: Low Level of Anhedonia (20 <= SHAPS Total Score < 38),"subjects with MDD [2]; Treatment Week 6, fITT, N = 77",62 (80.52%)
same,Frequency of Subjects: No Anhedonia (SHAPS Total Score < 20),"subjects with MDD [2]; Treatment Week 6, fITT, N = 77",7 (9.09%)
same,"SHAPS Total Score Change from Baseline LSMean (SE), MMRM","subjects with MDD [2]; eITT, Treatment Week 1",−1.7
same,SHAPS Total Score Effect Size vs placebo,"subjects with MDD [2]; eITT, Treatment Week 1",−0.15
same,"SHAPS Total Score LSMean Difference (SE) Treatment - Placebo, MMRM","subjects with MDD [2]; eITT, Treatment Week 1",−0.8
same,"SHAPS Total Score Change from Baseline LSMean (SE), MMRM","subjects with MDD [2]; eITT, Treatment Week 3",−3.2
same,SHAPS Total Score Effect Size vs placebo,"subjects with MDD [2]; eITT, Treatment Week 3",−0.25
same,"SHAPS Total Score LSMean Difference (SE) Treatment - Placebo, MMRM","subjects with MDD [2]; eITT, Treatment Week 3",−1.4
same,"SHAPS Total Score Change from Baseline LSMean (SE), MMRM","subjects with MDD [2]; eITT, Treatment Week 4",−4.3
same,SHAPS Total Score Effect Size vs placebo,"subjects with MDD [2]; eITT, Treatment Week 4",−0.23
same,"SHAPS Total Score LSMean Difference (SE) Treatment - Placebo, MMRM","subjects with MDD [2]; eITT, Treatment Week 4",−1.4
same,"SHAPS Total Score Change from Baseline LSMean (SE), MMRM","subjects with MDD [2]; eITT, Treatment Week 5",−4.0
same,SHAPS Total Score Effect Size vs placebo,"subjects with MDD [2]; eITT, Treatment Week 5",−0.08
same,"SHAPS Total Score LSMean Difference (SE) Treatment - Placebo, MMRM","subjects with MDD [2]; eITT, Treatment Week 5",−0.5
same,"SHAPS Total Score Change from Baseline LSMean (SE), MMRM","subjects with MDD [2]; eITT, Treatment Week 6",−4.4
same,"SHAPS Total Score LSMean Difference (SE) Treatment - Placebo, MMRM","subjects with MDD [2]; eITT, Treatment Week 6",−0.7
same,"SHAPS Total Score Change from Baseline LSMean (SE), MMRM","subjects with MDD [2]; fITT, Treatment Week 1",−1.9
same,SHAPS Total Score Effect Size vs placebo,"subjects with MDD [2]; fITT, Treatment Week 1",−0.15
same,"SHAPS Total Score LSMean Difference (SE) Treatment - Placebo, MMRM","subjects with MDD [2]; fITT, Treatment Week 1",−1.0
same,"SHAPS Total Score Change from Baseline LSMean (SE), MMRM","subjects with MDD [2]; fITT, Treatment Week 3",−3.1
same,SHAPS Total Score Effect Size vs placebo,"subjects with MDD [2]; fITT, Treatment Week 3",−0.20
same,"SHAPS Total Score LSMean Difference (SE) Treatment - Placebo, MMRM","subjects with MDD [2]; fITT, Treatment Week 3",−1.4
same,"SHAPS Total Score Change from Baseline LSMean (SE), MMRM","subjects with MDD [2]; fITT, Treatment Week 4",−4.1
same,SHAPS Total Score Effect Size vs placebo,"subjects with MDD [2]; fITT, Treatment Week 4",−0.23
same,"SHAPS Total Score LSMean Difference (SE) Treatment - Placebo, MMRM","subjects with MDD [2]; fITT, Treatment Week 4",−1.6
same,"SHAPS Total Score Change from Baseline LSMean (SE), MMRM","subjects with MDD [2]; fITT, Treatment Week 5",−4.1
same,SHAPS Total Score Effect Size vs placebo,"subjects with MDD [2]; fITT, Treatment Week 5",−0.09
same,"SHAPS Total Score LSMean Difference (SE) Treatment - Placebo, MMRM","subjects with MDD [2]; fITT, Treatment Week 5",−0.8
same,"SHAPS Total Score Change from Baseline LSMean (SE), MMRM","subjects with MDD [2]; fITT, Treatment Week 6",−4.5
same,"SHAPS Total Score LSMean Difference (SE) Treatment - Placebo, MMRM","subjects with MDD [2]; fITT, Treatment Week 6",−0.8
same,TEAE in >=5% of subjects: Diarrhea,subjects with MDD [3]; [4],7 (8) n (%)
same,TEAE in >=5% of subjects: Gastrointestinal Disorders,subjects with MDD [3]; [4],12 (14) n (%)
same,TEAE in >=5% of subjects: Headache,subjects with MDD [3]; [4],10 (12) n (%)
same,TEAE in >=5% of subjects: Infections And Infestations,subjects with MDD [3]; [4],13 (15) n (%)
same,TEAE in >=5% of subjects: Nasopharyngitis,subjects with MDD [3]; [4],5 (6) n (%)
same,TEAE in >=5% of subjects: Nervous System Disorders,subjects with MDD [3]; [4],13 (15) n (%)
same,TEAE in >=5% of subjects: Pruritus,subjects with MDD [3]; [4],5 (6) n (%)
same,TEAE in >=5% of subjects: Skin And Subcutaneous Tissue Disorders,subjects with MDD [3]; [4],6 (7) n (%)
same,TEAE in >=5% of subjects: Total no. Subjects with Adverse Events,subjects with MDD [3]; [4],40 (47) n (%)
same,TEAE of Special Interest: Abdominal Pain,subjects with MDD [3]; [5],1 (1.2) n (%)
same,TEAE of Special Interest: Abdominal Pain Upper,subjects with MDD [3]; [5],0 n (%)
same,TEAE of Special Interest: Diarrhea,subjects with MDD [3]; [5],7 (8.2) n (%)
same,TEAE of Special Interest: Dyspepsia,subjects with MDD [3]; [5],1 (1.2) n (%)
same,TEAE of Special Interest: Gastrointestinal Disorders,subjects with MDD [3]; [5],9 (10.6) n (%)
same,TEAE of Special Interest: Pruritus,subjects with MDD [3]; [5],5 (5.9) n (%)
same,TEAE of Special Interest: Skin And Subcutaneous Tissue Disorders,subjects with MDD [3]; [5],5 (5.9) n (%)
same,TEAE of Special Interest: Total no. Subjects with Adverse Events of Special Interest,subjects with MDD [3]; [5],13 (15.3) n (%)
same,Subjects with 1 or more TEAE,subjects with MDD [3]; [6],40 (47.1) n (%)
same,Subjects with 1 or more serious TEAE,subjects with MDD [3]; [6],0 n (%)
same,Subjects with TEAE leading to death,subjects with MDD [3]; [6],0 n (%)
same,Subjects with TEAE leading to discontinuation of agent,subjects with MDD [3]; [6],1 (1.2) n (%)
same,Total subjects affected by non-serious adverse events,subjects with MDD [3]; [6],23 (27.1%) n (%)
same,Subjects with drug-related TEAE,"subjects with MDD [3]; Treatment period, Full Safety Analysis Set, 10 mg, N = 85, relationships possible, probable, very likely",20 (23.5) n (%)
same,patients who experienced acute cholecystitis,subjects with MDD [3]; treatment period,0 patients
same,"TEAE of special interest pruritus, subjects","subjects with MDD [3]; treatment period, 5/85",5.9%
same,"TEAE diarrhea, subjects","subjects with MDD [3]; treatment period, 7/85",8.2%
same,"TEAE headache, subjects","subjects with MDD [3]; treatment period, 10/85",11.8%
same,subjects who discontinued due to treatment-emergent adverse events,"subjects with MDD [3]; treatment period, due to diarrhea, nausea, vomiting and headache",1 subject
